{
  "source": "patent US10604524B2",
  "about": "“Pyrropyrimidine compounds as MNKs inhibitors” (LIFEARC, priority 2015, dated 2020)",
  "experiment_in_all_cases": "Kinase selectivity screen",
  "key": {"[1]": {"target": "PTK2 (Homo sapiens, UniProt Q05397)", "details": "read-out: % Inhibition PTK2"}, "[2]": {"target": "STK10 (Homo sapiens, UniProt O94804)", "details": "read-out: % Inhibition STK10"}, "[3]": {"target": "DYRK2 (Homo sapiens, UniProt Q92630)", "details": "read-out: % Inhibition DYRK2"}, "[4]": {"target": "PIK3CD (Homo sapiens, UniProt O00329)", "sequence (O00329 whole entry, species assumed)": "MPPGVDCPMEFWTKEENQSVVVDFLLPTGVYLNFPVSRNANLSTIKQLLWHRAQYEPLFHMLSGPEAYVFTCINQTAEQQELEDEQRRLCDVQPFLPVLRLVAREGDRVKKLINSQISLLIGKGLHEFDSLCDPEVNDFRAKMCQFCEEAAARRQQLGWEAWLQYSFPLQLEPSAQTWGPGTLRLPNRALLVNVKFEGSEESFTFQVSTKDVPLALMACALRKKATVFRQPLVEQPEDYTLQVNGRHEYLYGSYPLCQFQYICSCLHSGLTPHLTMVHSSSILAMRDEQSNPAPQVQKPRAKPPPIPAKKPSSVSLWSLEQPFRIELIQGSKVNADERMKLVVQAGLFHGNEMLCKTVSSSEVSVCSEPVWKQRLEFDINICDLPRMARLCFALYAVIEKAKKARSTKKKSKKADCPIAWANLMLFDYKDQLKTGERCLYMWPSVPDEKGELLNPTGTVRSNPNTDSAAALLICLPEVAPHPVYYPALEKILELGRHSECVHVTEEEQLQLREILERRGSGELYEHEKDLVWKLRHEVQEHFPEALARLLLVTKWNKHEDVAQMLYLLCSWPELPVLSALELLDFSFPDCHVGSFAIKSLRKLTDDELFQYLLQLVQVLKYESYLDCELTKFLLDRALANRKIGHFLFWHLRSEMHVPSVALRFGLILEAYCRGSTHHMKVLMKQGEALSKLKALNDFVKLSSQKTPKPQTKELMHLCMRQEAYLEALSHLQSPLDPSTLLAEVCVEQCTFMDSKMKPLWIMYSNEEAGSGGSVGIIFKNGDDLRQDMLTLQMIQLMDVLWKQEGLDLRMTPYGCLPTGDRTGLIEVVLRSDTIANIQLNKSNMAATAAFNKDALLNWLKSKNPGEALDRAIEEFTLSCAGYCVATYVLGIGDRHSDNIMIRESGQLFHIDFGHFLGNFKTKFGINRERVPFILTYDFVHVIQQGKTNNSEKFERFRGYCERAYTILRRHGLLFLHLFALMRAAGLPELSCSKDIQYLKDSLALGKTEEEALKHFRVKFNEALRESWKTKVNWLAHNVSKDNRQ", "sequence (P27986 whole entry partner, species assumed)": "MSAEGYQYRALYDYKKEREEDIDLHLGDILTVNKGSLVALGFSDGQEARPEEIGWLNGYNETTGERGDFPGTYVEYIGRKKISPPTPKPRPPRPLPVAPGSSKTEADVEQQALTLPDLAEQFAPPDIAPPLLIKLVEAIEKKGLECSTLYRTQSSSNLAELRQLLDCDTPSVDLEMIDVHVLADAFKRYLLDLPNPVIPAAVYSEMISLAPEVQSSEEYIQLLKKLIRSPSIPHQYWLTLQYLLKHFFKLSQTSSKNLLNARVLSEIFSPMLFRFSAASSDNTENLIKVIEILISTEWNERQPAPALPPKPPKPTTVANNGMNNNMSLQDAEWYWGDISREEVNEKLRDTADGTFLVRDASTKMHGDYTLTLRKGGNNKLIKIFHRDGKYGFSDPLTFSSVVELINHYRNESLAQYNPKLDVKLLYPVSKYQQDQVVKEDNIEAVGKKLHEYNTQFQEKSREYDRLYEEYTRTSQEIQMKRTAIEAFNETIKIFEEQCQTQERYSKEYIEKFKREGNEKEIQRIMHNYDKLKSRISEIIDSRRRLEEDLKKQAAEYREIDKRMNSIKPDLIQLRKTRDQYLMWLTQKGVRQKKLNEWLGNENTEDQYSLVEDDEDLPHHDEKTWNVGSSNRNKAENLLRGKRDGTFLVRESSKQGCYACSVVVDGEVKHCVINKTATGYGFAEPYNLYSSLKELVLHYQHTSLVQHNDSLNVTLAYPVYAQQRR", "details": "read-out: % Inhibition PIK3CD"}, "[5]": {"target": "ABL2 (Homo sapiens, UniProt P42684)", "details": "read-out: % Inhibition ABL2"}, "[6]": {"target": "GSK3B (Homo sapiens, UniProt P49841)", "sequence (P49841 whole entry, species assumed)": "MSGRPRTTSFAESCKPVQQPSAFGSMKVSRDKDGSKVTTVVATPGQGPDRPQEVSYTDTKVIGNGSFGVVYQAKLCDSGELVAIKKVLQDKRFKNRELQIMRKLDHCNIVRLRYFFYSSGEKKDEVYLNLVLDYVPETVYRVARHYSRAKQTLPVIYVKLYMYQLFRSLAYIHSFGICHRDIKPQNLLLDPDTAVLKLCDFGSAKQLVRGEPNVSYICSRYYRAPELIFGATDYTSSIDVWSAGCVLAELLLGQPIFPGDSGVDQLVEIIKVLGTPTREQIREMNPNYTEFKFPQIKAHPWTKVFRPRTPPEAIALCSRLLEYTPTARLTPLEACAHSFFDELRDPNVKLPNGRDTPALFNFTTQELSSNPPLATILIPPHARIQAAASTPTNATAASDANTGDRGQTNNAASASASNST", "details": "read-out: % Inhibition GSK3B"}, "[7]": {"target": "TYRO3 (Homo sapiens, UniProt Q06418)", "details": "read-out: % Inhibition TYRO3"}, "[8]": {"target": "IKBKB (Homo sapiens, UniProt O14920)", "details": "read-out: % Inhibition IKBKB"}, "[9]": {"target": "PRKCA (Homo sapiens, UniProt P17252)", "details": "read-out: % Inhibition PRKCA"}, "[10]": {"target": "CAMK2B (Homo sapiens, UniProt Q13554)", "details": "read-out: % Inhibition CAMK2B"}, "[11]": {"target": "TBK1 (Homo sapiens, UniProt Q9UHD2)", "details": "read-out: % Inhibition TBK1"}, "[12]": {"target": "LYN (Homo sapiens, UniProt P07948)", "details": "read-out: % Inhibition LYN"}, "[13]": {"target": "FES (Homo sapiens, UniProt P07332)", "details": "read-out: % Inhibition FES"}, "[14]": {"target": "MAPK14 (Homo sapiens, UniProt Q16539)", "details": "read-out: % Inhibition MAPK14"}, "[15]": {"target": "MAPKAPK2 (Homo sapiens, UniProt P49137)", "details": "read-out: % Inhibition MAPKAPK2"}, "[16]": {"target": "PAK4 (Homo sapiens, UniProt O96013)", "sequence (O96013 whole entry, species assumed)": "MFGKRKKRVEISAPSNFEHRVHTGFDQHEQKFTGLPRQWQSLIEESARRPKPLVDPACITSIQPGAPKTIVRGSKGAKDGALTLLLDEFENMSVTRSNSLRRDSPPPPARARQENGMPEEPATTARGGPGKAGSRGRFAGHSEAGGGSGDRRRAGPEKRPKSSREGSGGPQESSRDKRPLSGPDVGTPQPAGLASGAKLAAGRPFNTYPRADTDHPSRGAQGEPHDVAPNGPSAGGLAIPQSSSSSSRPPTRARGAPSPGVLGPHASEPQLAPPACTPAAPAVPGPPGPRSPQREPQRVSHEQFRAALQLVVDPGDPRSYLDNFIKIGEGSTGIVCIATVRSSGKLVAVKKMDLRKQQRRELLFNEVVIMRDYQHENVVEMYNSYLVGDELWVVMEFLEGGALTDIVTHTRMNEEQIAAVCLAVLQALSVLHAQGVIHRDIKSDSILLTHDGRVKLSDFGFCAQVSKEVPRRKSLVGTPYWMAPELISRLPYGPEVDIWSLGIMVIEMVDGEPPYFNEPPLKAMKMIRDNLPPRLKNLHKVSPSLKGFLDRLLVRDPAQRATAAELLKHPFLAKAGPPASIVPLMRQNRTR", "details": "read-out: % Inhibition PAK4"}, "[17]": {"target": "MAP3K7 (Homo sapiens, UniProt O43318)", "details": "read-out: % Inhibition MAP3K7"}, "[18]": {"target": "PIK3C2G (Homo sapiens, UniProt O75747)", "details": "read-out: % Inhibition PIK3C2G"}, "[19]": {"target": "LCK (Homo sapiens, UniProt P06239)", "details": "read-out: % Inhibition LCK"}, "[20]": {"target": "INSRR (Homo sapiens, UniProt P14616)", "details": "read-out: % Inhibition INSRR"}, "[21]": {"target": "MAPK8 (Homo sapiens, UniProt P45983)", "details": "read-out: % Inhibition MAPK8"}, "[22]": {"target": "PIP5K1A (Homo sapiens, UniProt Q99755)", "details": "read-out: % Inhibition PIP5K1A"}, "[23]": {"target": "BTK (Homo sapiens, UniProt Q06187)", "details": "read-out: % Inhibition BTK"}, "[24]": {"target": "ROS1 (Homo sapiens, UniProt P08922)", "sequence (P08922 28-2347, species assumed)": "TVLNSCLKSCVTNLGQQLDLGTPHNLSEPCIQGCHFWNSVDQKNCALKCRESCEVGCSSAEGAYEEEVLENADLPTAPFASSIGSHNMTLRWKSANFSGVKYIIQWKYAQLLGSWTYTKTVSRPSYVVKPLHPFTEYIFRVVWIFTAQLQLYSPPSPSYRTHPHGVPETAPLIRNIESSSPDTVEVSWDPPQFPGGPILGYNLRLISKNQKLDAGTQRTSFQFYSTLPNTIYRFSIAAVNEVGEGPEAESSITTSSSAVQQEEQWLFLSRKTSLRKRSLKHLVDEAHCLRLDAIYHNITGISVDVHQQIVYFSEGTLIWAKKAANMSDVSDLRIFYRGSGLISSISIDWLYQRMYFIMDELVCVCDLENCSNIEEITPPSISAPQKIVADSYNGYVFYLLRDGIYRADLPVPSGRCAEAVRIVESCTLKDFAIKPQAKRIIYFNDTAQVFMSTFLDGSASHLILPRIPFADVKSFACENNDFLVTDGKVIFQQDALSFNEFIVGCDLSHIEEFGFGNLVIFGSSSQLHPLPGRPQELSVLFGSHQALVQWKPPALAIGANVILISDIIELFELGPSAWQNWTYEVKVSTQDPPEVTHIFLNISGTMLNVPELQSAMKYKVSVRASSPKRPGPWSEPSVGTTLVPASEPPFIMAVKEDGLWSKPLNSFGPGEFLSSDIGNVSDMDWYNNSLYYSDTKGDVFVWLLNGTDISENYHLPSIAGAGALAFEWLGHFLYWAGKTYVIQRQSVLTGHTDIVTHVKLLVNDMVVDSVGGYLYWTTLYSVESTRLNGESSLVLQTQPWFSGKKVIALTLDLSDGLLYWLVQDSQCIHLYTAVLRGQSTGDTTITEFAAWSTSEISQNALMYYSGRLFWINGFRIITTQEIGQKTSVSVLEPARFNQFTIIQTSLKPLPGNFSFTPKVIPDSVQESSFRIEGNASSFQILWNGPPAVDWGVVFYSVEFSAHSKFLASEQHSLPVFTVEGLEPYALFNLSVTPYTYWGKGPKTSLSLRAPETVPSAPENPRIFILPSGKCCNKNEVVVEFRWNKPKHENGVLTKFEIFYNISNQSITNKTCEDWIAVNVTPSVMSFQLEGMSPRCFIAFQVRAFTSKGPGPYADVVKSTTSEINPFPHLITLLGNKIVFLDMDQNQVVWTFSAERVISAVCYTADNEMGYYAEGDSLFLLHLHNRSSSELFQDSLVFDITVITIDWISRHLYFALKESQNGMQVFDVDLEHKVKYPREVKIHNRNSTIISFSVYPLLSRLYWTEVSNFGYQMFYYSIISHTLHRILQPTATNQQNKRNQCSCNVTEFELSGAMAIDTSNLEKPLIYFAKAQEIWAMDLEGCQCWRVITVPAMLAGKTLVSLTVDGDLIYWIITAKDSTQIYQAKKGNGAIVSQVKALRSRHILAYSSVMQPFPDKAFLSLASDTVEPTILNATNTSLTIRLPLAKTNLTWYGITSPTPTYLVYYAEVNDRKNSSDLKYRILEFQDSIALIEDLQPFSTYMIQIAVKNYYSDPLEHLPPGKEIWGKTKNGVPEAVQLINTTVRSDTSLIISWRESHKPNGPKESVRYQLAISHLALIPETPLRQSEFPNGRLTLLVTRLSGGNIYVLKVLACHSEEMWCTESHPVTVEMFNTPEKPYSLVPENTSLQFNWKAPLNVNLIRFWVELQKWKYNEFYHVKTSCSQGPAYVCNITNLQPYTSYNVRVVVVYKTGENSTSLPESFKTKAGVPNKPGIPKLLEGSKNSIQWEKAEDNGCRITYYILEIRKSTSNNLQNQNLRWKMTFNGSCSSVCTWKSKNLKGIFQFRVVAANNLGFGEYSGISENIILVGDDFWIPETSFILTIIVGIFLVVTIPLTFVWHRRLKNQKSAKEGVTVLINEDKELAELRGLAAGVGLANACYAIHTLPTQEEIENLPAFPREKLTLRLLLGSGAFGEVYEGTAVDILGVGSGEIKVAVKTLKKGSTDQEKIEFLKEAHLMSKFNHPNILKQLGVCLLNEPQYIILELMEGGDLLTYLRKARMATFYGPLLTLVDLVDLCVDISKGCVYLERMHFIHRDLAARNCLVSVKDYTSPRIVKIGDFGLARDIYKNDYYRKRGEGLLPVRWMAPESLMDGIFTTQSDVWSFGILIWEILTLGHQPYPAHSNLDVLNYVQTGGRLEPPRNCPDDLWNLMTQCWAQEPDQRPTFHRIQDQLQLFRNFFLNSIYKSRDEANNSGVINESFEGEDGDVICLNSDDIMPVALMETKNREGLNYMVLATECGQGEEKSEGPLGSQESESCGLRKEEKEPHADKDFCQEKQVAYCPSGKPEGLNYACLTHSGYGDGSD", "details": "read-out: % Inhibition ROS1"}, "[25]": {"target": "ALK (Homo sapiens, UniProt Q9UM73)", "details": "read-out: % Inhibition ALK"}, "[26]": {"target": "FGFR2 (Homo sapiens, UniProt P21802)", "details": "read-out: % Inhibition FGFR2"}, "[27]": {"target": "MAP2K1 (Homo sapiens, UniProt Q02750)", "details": "read-out: % Inhibition MAP2K1"}, "[28]": {"target": "PIP4K2A (Homo sapiens, UniProt P48426)", "details": "read-out: % Inhibition PIP4K2A"}, "[29]": {"target": "NEK2 (Homo sapiens, UniProt P51955)", "details": "read-out: % Inhibition NEK2"}, "[30]": {"target": "PRKCQ (Homo sapiens, UniProt Q04759)", "details": "read-out: % Inhibition PRKCQ"}, "[31]": {"target": "ABL1 (Homo sapiens, UniProt P00519)", "details": "read-out: % Inhibition ABL1"}, "[32]": {"target": "PIK3CG (Homo sapiens, UniProt P48736)", "details": "read-out: % Inhibition PIK3CG"}, "[33]": {"target": "SRPK1 (Homo sapiens, UniProt Q96SB4)", "details": "read-out: % Inhibition SRPK1"}, "[34]": {"target": "FLT1 (Homo sapiens, UniProt P17948)", "details": "read-out: % Inhibition FLT1"}, "[35]": {"target": "AURKB (Homo sapiens, UniProt Q96GD4)", "details": "read-out: % Inhibition AURKB"}},
  "data": [
    {"compound": "CC(C)Oc1cc(F)ccc1Nc1ncnc2cc(C(=O)NCCCN(C)C)n(C)c12", "note": "[Example 40, N-[3-(dimethylamino)propyl]-4-{[4-fluoro-2-(propan-2-yloxy)phenyl]amino}-5-methyl-5H-pyrrolo[3,2-d]pyrimidine-6-carboxamide]", "values": [
      {"measurement": "inhibition at 1 µM", "setting": "[1]", "result": 7, "unit": "%"},
      {"measurement": "inhibition at 1 µM", "setting": "[2]", "result": 0, "unit": "%"},
      {"measurement": "inhibition at 1 µM", "setting": "[3]", "result": 8, "unit": "%"},
      {"measurement": "inhibition at 1 µM", "setting": "[4]", "result": 2, "unit": "%"},
      {"measurement": "inhibition at 1 µM", "setting": "[5]", "result": 0, "unit": "%"},
      {"measurement": "inhibition at 1 µM", "setting": "[6]", "result": 0, "unit": "%"},
      {"measurement": "inhibition at 1 µM", "setting": "[7]", "result": 0, "unit": "%"},
      {"measurement": "inhibition at 1 µM", "setting": "[8]", "result": 0, "unit": "%"},
      {"measurement": "inhibition at 1 µM", "setting": "[9]", "result": 5, "unit": "%"},
      {"measurement": "inhibition at 1 µM", "setting": "[10]", "result": 14, "unit": "%"},
      {"measurement": "inhibition at 1 µM", "setting": "[11]", "result": 0, "unit": "%"},
      {"measurement": "inhibition at 1 µM", "setting": "[12]", "result": 11, "unit": "%"},
      {"measurement": "inhibition at 1 µM", "setting": "[13]", "result": 5, "unit": "%"},
      {"measurement": "inhibition at 1 µM", "setting": "[14]", "result": 0, "unit": "%"},
      {"measurement": "inhibition at 1 µM", "setting": "[15]", "result": 0, "unit": "%"},
      {"measurement": "inhibition at 1 µM", "setting": "[16]", "result": 0, "unit": "%"},
      {"measurement": "inhibition at 1 µM", "setting": "[17]", "result": 5, "unit": "%"},
      {"measurement": "inhibition at 1 µM", "setting": "[18]", "result": 4, "unit": "%"},
      {"measurement": "inhibition at 1 µM", "setting": "[19]", "result": 0, "unit": "%"},
      {"measurement": "inhibition at 1 µM", "setting": "[20]", "result": 0, "unit": "%"},
      {"measurement": "inhibition at 1 µM", "setting": "[21]", "result": 0, "unit": "%"},
      {"measurement": "inhibition at 1 µM", "setting": "[22]", "result": 2, "unit": "%"},
      {"measurement": "inhibition at 1 µM", "setting": "[23]", "result": 0, "unit": "%"},
      {"measurement": "inhibition at 1 µM", "setting": "[24]", "result": 0, "unit": "%"},
      {"measurement": "inhibition at 1 µM", "setting": "[25]", "result": 0, "unit": "%"},
      {"measurement": "inhibition at 1 µM", "setting": "[26]", "result": 0, "unit": "%"},
      {"measurement": "inhibition at 1 µM", "setting": "[27]", "result": 0, "unit": "%"},
      {"measurement": "inhibition at 1 µM", "setting": "[28]", "result": 7, "unit": "%"},
      {"measurement": "inhibition at 1 µM", "setting": "[29]", "result": 0, "unit": "%"},
      {"measurement": "inhibition at 1 µM", "setting": "[30]", "result": 0, "unit": "%"},
      {"measurement": "inhibition at 1 µM", "setting": "[31]", "result": 0, "unit": "%"},
      {"measurement": "inhibition at 1 µM", "setting": "[32]", "result": 1, "unit": "%"},
      {"measurement": "inhibition at 1 µM", "setting": "[33]", "result": 0, "unit": "%"},
      {"measurement": "inhibition at 1 µM", "setting": "[34]", "result": 8, "unit": "%"},
      {"measurement": "inhibition at 1 µM", "setting": "[35]", "result": 14, "unit": "%"}
    ]}
  ]
}
